{
  "source": "paper PMC7663372",
  "about": "“Brain Distribution of Dual ABCB1/ABCG2 Substrates Is Unaltered in a Beta-Amyloidosis Mouse Model” (International Journal of Molecular Sciences, 2020)",
  "key": {"ABCG2 at the mouse BBB [1]": {"target": "T1, ABCG2 at the mouse BBB (Mus musculus, UniProt Q7TMS5)", "T1 sequence (Q7TMS5 1-657)": "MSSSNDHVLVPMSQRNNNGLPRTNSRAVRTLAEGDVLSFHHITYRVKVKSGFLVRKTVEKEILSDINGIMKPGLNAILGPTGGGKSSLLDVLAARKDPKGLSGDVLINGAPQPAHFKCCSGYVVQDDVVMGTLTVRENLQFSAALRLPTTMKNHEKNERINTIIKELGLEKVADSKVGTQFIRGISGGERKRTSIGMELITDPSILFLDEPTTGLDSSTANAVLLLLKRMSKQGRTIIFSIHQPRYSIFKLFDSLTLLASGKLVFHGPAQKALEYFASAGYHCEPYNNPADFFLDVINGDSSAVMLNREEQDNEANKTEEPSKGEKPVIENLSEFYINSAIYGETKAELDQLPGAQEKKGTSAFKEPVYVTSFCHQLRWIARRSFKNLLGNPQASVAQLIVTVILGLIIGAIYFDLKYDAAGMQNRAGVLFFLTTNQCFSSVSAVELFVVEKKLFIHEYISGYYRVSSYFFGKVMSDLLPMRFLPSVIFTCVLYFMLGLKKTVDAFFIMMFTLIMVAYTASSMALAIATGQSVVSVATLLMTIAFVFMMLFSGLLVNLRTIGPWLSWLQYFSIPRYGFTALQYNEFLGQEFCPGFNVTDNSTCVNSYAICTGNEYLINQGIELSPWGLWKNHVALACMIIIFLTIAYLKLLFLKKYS", "conditions": "for percentage increase in Kp,brain following ABCG2 inhibition: Ko143 5 mg/kg vs vehicle, tariquidar 12 mg/kg, hippocampus, cortex; for change in Kp,brain after partial ABCG2 inhibition: Ko143 5 mg/kg"}, "ABCG2 at the mouse BBB [2]": {"target": "T1, ABCG2 at the mouse BBB", "parameters": "Two PET imaging approaches for assessing the activity of ABCG2 at the mouse BBB were performed; from tissue; host or cells: blood-brain barrier (brain capillary endothelium) of living female APP/PS1-21 and wild-type C57BL/6J mice; method as in PMID 22828996", "conditions": "Abcb1a/b(-/-) mice pretreated with 15 mg/kg Ko143; cited from earlier work"}, "ABCB1 [3]": {"tested_on": "ABCB1", "parameters": "method as in PMID 26940368", "conditions": "read-out: IC50 for in vitro inhibition of its own transport by ABCB1; cited from earlier work"}, "ABCG2": {"tested_on": "ABCG2", "parameters": "method as in PMID 26940368", "conditions": "read-out: IC50 for in vitro inhibition of its own transport by ABCG2; cited from earlier work"}, "ABCB1 [4]": {"tested_on": "ABCB1", "conditions": "cited from earlier work"}, "ABCB1 [5]": {"tested_on": "ABCB1", "conditions": "cited from earlier work", "remark": "listed apart in the source"}, "ABCB1 at the BBB": {"tested_on": "ABCB1 at the BBB", "conditions": "cited from earlier work"}},
  "note": "pIC50: −log10 of the molar value. Like-named read-outs stand apart in the source and are kept apart here.",
  "data": [
    {"smiles": "COc1cc2c(cc1OC)CN(CCc1ccc(NC(=O)c3cc(OC)c(OC)cc3NC(=O)c3cnc4ccccc4c3)cc1)CC2", "note": "[[^11C]tariquidar]", "values": [
      {"measurement": "percentage increase in Kp,brain following ABCG2 inhibition", "setting": "ABCG2 at the mouse BBB [1]; APP/PS1-21 mice, cerebellum", "result": "36–52%"},
      {"measurement": "change in Kp,brain after partial ABCG2 inhibition", "setting": "ABCG2 at the mouse BBB [1]; cerebellum, APP/PS1-21 mice", "result": "significantly increased"},
      {"measurement": "change in Kp,brain after partial ABCG2 inhibition", "setting": "ABCG2 at the mouse BBB [1]; cerebellum, wild-type mice", "result": "not in wild-type mice"},
      {"measurement": "change in Kp,brain after partial ABCG2 inhibition", "setting": "ABCG2 at the mouse BBB [1]; hippocampus and cortex, both mouse strains", "result": "significantly higher"},
      {"measurement": "percentage increase in Kp,brain following ABCG2 inhibition", "setting": "ABCG2 at the mouse BBB [1]; wild-type mice, cerebellum", "result": "26–41%"},
      {"measurement": "maximum brain uptake, Kp,brain", "setting": "ABCG2 at the mouse BBB [2]", "result": "approximately 15"}
    ]},
    {"smiles": "COc1cc2c(cc1OC)CN(CCc1ccc(NC(=O)c3cc(OC)c(OC)cc3NC(=O)c3cnc4ccccc4c3)cc1)CC2", "note": "[tariquidar]", "values": [
      {"measurement": "pIC50", "setting": "ABCB1 [3]", "result": 7.77},
      {"measurement": "pIC50", "setting": "ABCG2", "result": 6.51}
    ]},
    {"smiles": "CN(C)C(=O)C(CCN1CCC(O)(c2ccc(Cl)cc2)CC1)(c1ccccc1)c1ccccc1", "note": "[loperamide]", "values": [
      {"measurement": "change in brain distribution in triple transgenic AD mice (APPswe, PS-1M146V, tauP301L)", "setting": "ABCB1 [4]", "result": "no changes"}
    ]},
    {"smiles": "Cc1nc2n(c(=O)c1CCN1CCC(c3noc4cc(F)ccc34)CC1)CCCC2O", "note": "(stereo not drawn) [paliperidone]", "values": [
      {"measurement": "difference in Kp,uu,brain between tg-APPArcSwe and age-matched control mice", "setting": "ABCB1 [5]", "result": "no differences"}
    ]},
    {"smiles": "CNC(=O)C(CCN1CCC(O)(c2ccc(Cl)cc2)CC1)(c1ccccc1)c1ccccc1", "note": "[[^11C]N-desmethyl-loperamide]", "values": [
      {"measurement": "increase in brain distribution relative to wild-type mice", "setting": "ABCB1 at the BBB; heterozygous Abcb1a/b(+/-) knockout mice", "result": 1.1, "unit": "fold"},
      {"measurement": "increase in brain distribution relative to wild-type mice", "setting": "ABCB1 at the BBB; homozygous Abcb1a/b(-/-) knockout mice", "result": 2.8, "unit": "fold"}
    ]}
  ]
}
